# According to patent EP0802730B1, “PESTICIDAL COMPOUNDS” (BTG INTERNATIONAL LIMITED, priority 1995, dated 1996):
# Where two headings read alike, the source gives them in different places. Marks after values point to notes of the source that are not given here.
# How the values were obtained:
# Assay type in all cases: in vivo
# [1] = tested on: Houseflies (MD) (Musca domestica); conditions: for MD (LD50): topical 1 µl drop in acetone on female flies, kill assessed 24 and 48 hours; for MD LD50 (µg/insect): Tables 10, 13, 14, NA = lack of detectable activity
# Experimental: Female flies were treated on the thorax with a one microlitre drop of test compound dissolved in acetone. Two replicates of 15 flies were used at each dose rate and 6 dose rates were used per compound under test. After treatment, the flies were maintained at a temperature of 20° ± 1°C and kill was assessed 24 and 48 hours after treatment. LD50 values were calculated in micrograms of test compound per fly (see Sawicki et al., Bulletin of the World Health Organisation, 35, 893 (1966) and Sawicki et al., Entomologia and Exp. Appli 10, 253, (1967).
# [2] = tested on: Mustard beetles (PC) (Phaedon cochleariae Fab); conditions: for PC (LD50): 1 µl acetone drop applied ventrally to adults, kill at 48 hours; for PC (LD50) / PC LD50 (µg/insect): NA = lack of detectable activity; for PC LD50 (µg/insect): Tables 10, 13, 14
# Experimental: A one microlitre drop of an acetone solution of the test compound was applied ventrally to adult mustard beetles using a micro drop applicator. The treated insects were maintained for 48 hours after which time kill was assessed. Two replicates each of 20 to 25 mustard beetles were used at each dose level and 5 dose levels were treated comparably. LD50 values were calculated as for houseflies.
# [3] = tested on: Mites (TU) (Tetranychus urticae), susceptible strain (GSS); test: Mite immersion test, susceptible strain GSS
# Experimental: 25 adult female mites were immersed in 35 µl of a solution of the test compound in a 1:4 acetone-water mixture for 30 seconds. The treated insects were maintained at 21° ± 2°C and kill was assessed 72 hours after treatment. […] Three replicates of 25 mites each were used at each dose rate and 5 or 6 dose rates were used per compound under test. LC50 values were calculated in ppm of the solution of the test compound per insect. The test was carried out using a susceptible strain of mites (GSS) supplied by Schering, AG, Berlin.
# [4] = tested on: Whitefly (BT) (Bemisia tabaci), susceptible strain (SUD-S); test: Whitefly residual film vial test, susceptible strain SUD-S
# Experimental: Acetone solutions (0.100 ml) of the test compounds were placed in 10 ml glass vials and evaporated with rotation to deposit a film of the compound. Thirty adult whiteflies were placed inside the vial, then after 60 minutes, the treated insects were transferred onto untreated cotton leaf discs which were kept moist on a bed of agar gel. The temperature was maintained at 25°C and mortality assessed after 48 hours. Three replicates were used at each of 5 to 7 dose levels per compound.
# [5] = tested on: Myzus persicae, susceptible strain (US1L); test: Aphid dip test, susceptible strain; conditions: read-out: MP % kill 100 ppm
# Experimental: Activity against resistant (R) and susceptible (S) strains of aphid (Myzus persicae) was assessed using the following method.
# Entrapment rings of fluon were painted halfway up the inside of 4 cm lengths of glass tubing (1.5 cm diameter), and squares of insect-proof gauze were attached to one end of each tube by elastic bands. Fifteen apterous adults were then gently transferred into the tubes using a sable-hair brush, and the tube sealed with a second gauze square.
# Tubes containing aphids were dipped into insecticide solutions for 10 seconds, dried on blotting paper, and then inverted and tapped to cause treated aphids to fall to the unimmersed end of each tube. Handling mortality (usually zero or very slight) was scored after 1 hour, when aphids were transferred onto chinese cabbage leaf-discs (35 mm diameter) on an agar bed (25 mm in depth) in disposible plastic containers (30 mm high) and confined by applying a ring of fluon to the exposed lip of the container. Containers were store upright, without lids, in a constant environment facility maintained at 25°C under continuous room lighting. Mortality was assessed at 24, 48 and 72 hours. Two replicates of 15 aphids each were used at each dose rate and 5 or 6 dose rates were used per compound under test.
# The test was carried out using a susceptible strain of aphids (US1L) collected in the field in East Anglia, UK and an extremely resistant strain of aphids (794Jz) (R3 esterase, sensitive AChE) collected from glasshouses in the UK.
# The values given are % mortality corrected for control data. The control comprised the test solution without active ingredient.
# [6] = ppm solution of test compound, 30 seconds immersion, kill at 72 hours, read-out: TU(GSS) (LC50)
# [7] = ppm solution of test compound, 60 minutes film exposure, mortality after 48 hours, read-out: BT(SUD-S) (LC50)
# [8] = 72 h, Tables 10, 13, 14, susceptible strain, NA = lack of detectable activity, read-out: TU LC50 (ppm/insect)
# [9] = 48 h, Tables 10, 13, 14, susceptible strain, NA = lack of detectable activity, read-out: BT LC50 (ppm/insect)
SMILES,"LC50 [3, 8]","LC50 [4, 9]",mortality at 100 ppm [5],MD LD50 (µg/insect) [1],PC LD50 (µg/insect) [2],also measured
"C=CC(C)(C)C1=C(O)C(OC)(OC)c2ccccc2C1=O [Example 14, 1,1-dimethoxy-2-hydroxy-3-(1,1-dimethylprop-2-enyl)-naphthalene-4-one]",–,–,–,–,–,"MD (LD50) [1]: c. 2.5 µg/insect; PC (LD50) [2]: c. 6.0 µg/insect; LC50 [3, 6]: ~800 mg/L"
C=CC(C)(C)C1=C(O)C(=NOC)c2ccccc2C1=O [Example 15],–,–,–,–,–,"PC % Kill at 20 µg/insect ([2]; mustard beetle, in vivo, topical or ocular, 48 h): 35% *; mortality at 1000 ppm ([4]; 48 h, read-out: BT(SUD-S) % Kill at 1000 ppm solution of test compound): 97%"
CCCC(C)(C)C1=C(O)C(=O)c2ccccc2C1=O [Example 16],–,–,–,–,–,"MD (LD50) [1]: 8.8 µg/insect; PC (LD50) [2]: c. 10 µg/insect; LC50 [3, 6]: 91 mg/L; LC50 [4, 7]: 10 mg/L"
CCCC(C)(C)C1=C(OC(=O)CC)C(=O)c2ccccc2C1=O [Example 17],–,–,–,–,–,"MD (LD50) [1]: 14 µg/insect; LC50 [3, 6]: 50 mg/L"
CCCCCC(C)(C)C1=C(O)C(=O)c2ccccc2C1=O [Example 18],–,–,–,–,–,"MD (LD50) [1]: 13 µg/insect; PC (LD50) [2]: c. 15 µg/insect; LC50 [3, 6]: ~100 mg/L; LC50 [4, 7]: 10 mg/L"
"CC1(C2=C(O)C(=O)c3ccccc3C2=O)CCCC1 [Example 24, 2-hydroxy-3-(1'-methylcyclopentyl)-naphthalene-1,4-dione]",48 mg/L,33 mg/L,44%,–,–,–
"CCC1(C2=C(O)C(=O)c3ccccc3C2=O)CCCCC1 [Example 26, 2-(1'-ethylcyclohexyl)-3-hydroxy-naphthalene-1,4-dione]",> 100 mg/L,2.9 mg/L,–,13 µg/insect,2.9 µg/insect,–
"C=CC1(C2=C(O)C(=O)c3ccccc3C2=O)CCCCC1 [Example 27, 2-(1'-ethenecyclohexyl)-3-hydroxy-naphthalene-1,4-dione]",~80 mg/L,0.9 mg/L,–,6.0 µg/insect,4.7 µg/insect,–
"O=C1C(O)=C(C2(C(F)(F)F)CCCCC2)C(=O)c2ccccc21 [Example 28, 2-hydroxy-3-(1'-trifluoromethylcyclohexyl)-naphthalene-1,4-dione]",40 mg/L,24 mg/L,5%,14 µg/insect,–,–
C=CC1(C2=C(O)C(=O)c3ccccc3C2=O)CCCC1 [Example 30],6 mg/L,~50 mg/L,–,15 µg/insect,<20 µg/insect,–
"CC(C)(C)CC1=C(O)C(=O)c2ccccc2C1=O [Example 35, 2-(2,2-dimethylpropyl)-3-hydroxy-naphthalene-1,4-dione]",–,~12 mg/L,–,1.2 µg/insect,4.6 µg/insect,–
"CC(C)(C)CCC1=C(O)C(=O)c2ccccc2C1=O [Example 36, 2-(3,3-dimethylbutyl)-3-hydroxy-naphthalene-1,4-dione]",36 mg/L,~7 mg/L,~24%,–,1.3 µg/insect,–
"CC(C)(C)CCCC1=C(O)C(=O)c2ccccc2C1=O [Example 37, 2-(4,4-dimethylpentyl)-3-hydroxy-naphthalene-1,4-dione]",2.9 mg/L,16 mg/L,~70%,–,–,–
"CC(C)(C)C=CC1=C(O)C(=O)c2ccccc2C1=O [Example 42, 2-(3,3-dimethyl-but-1-enyl)-3-hydroxy-naphthalene-1,4-dione]",~100 mg/L,17 mg/L,–,–,3.6 µg/insect,–
"CC(C)(C)C=CCCCC1=C(O)C(=O)c2ccccc2C1=O [Example 43, 2-(6,6-dimethylhep-4-enyl)-3-hydroxy-naphthalene-1,4-dione]",11.5 mg/L,~60 mg/L,~100%,–,–,–
C=CC(C)(C)CCC1=C(O)C(=O)c2ccccc2C1=O [Example 50],6.5 mg/L,16 mg/L,–,–,–,–
